Values joined by “and” are separate entries in the source; they are usually repeats but may differ in a detail not shown here. Equal values may be shown once. Read-outs that look alike come from different tables or passages of the source.
Columns and labels:
[1] = tested on: NSCLC; settings: patients previously screened for EGFR expression; cited from earlier work
[2] = tested on: NSCLC patients; experiment: Overall survival (Kaplan-Meier) of NSCLC patients in the gefitinib expanded access trial, by molecular subgroup; type: in vivo, human
Method: (§1) Specimens. […] Chart review and study analyses were approved by the RUMC Institutional Review Board. The diagnosis of NSCLC in the archival material was obtained from pathology reports and confirmed by histologic evaluation before further analysis. Age, gender, smoking status and disease grade were established from chart review and patient report at registration. Smoking status was defined by lifetime consumption of <100 cigarettes. Response was assessed according to RECIST criteria of measurable and non-measurable lesions. […] Progressive disease was defined by relapse within 70 days of treatment.
(§2) In Situ Hybridization. For copy number analyses by FISH, EGFR and centromere 7 (CEN7) probes were utilized to examine EGFR/cell, CEN7/cell and EGFR/CEN 7. A probe targeting α satellite repeat sequences near the centromere of chromosome 7 was used to indicate CEN 7 copy number (SpectrumGreen™ CEP® 7, Abbott Molecular Inc.). Specimen slides were prepared using either the Vysis Paraffin Pretreatment II or III kits (Abbott Molecular Inc.). The prepared specimen slides were hybridized with two-color FISH probe solutions (SpectrumOrange™ LSI® EGFR, Spectrum-Green CEP 7; Abbott Molecular Inc.) in a HYBrite™ automated co-denaturation oven (Abbott Molecular Inc.). The slides were placed on the oven surface and 10 μL probe solution was layered over the tissue section. A cover slip was applied over the probe solution and sealed to the slide with rubber cement. After denaturation at 73° C. for 5 minutes, the probe was hybridized at 37° C. for 16-18 hr. Following hybridization and removal of the rubber cement seal, the slides were placed in room-temperature 2×SSC (SSC=0.3 M NaCl, 15 mM sodium citrate), 0.3% Nonidet P40 (NP40) for 2-5 min to detach the cover slips. The slides were then immersed in 73° C. 2×SSC, 0.3% NP40 for 2 min to remove nonspecifically bound probe and then were allowed to dry in the dark. DAPI I antifade solution (Abbott Molecular Inc.) was applied to the specimen for visualization of the nuclei. […] Over-digested or under-digested specimens were reprocessed as described previously.
(§3) Typically, 30-90 (median 80) cells were enumerated in each specimen. The mean number of signals per cell was calculated by totaling the number of signals from each cell for EGFR and CEN 7, and dividing by the number of cells counted to provide EGFR/cell and CEN 7/cell, respectively. EGFR/cell was divided by CEN 7/cell signals per cell to yield EGFR/CEN7. Other FISH parameters used in developing selection criteria are defined as follows. The EGFR % gain or CEN 7% gain was calculated as the percentage of cells with more than two EGFR or CEN 7 signals, respectively. […] When a slide was counted multiple times, counts were combined and used for recalculating the ratios and % gain.
(§4) Optimal cutoff points for defining high ratios or high % gains were selected by first generating cutoffs from the mean minus 1.5 standard deviations to the mean plus 3.5 standard deviations, in 0.1 standard deviation increments, for each parameter (ratios and % gains), using the mean and standard deviations of the non responding patients. Each high and low ratios and % gains at each cutoff were compared with objective response and survival (greater than or less than 1 year survival) in contingency tables. Cutoffs with the lowest chi-square probabilities were selected for further analysis.
Cutpoints were also assigned to indicate loss of chromosome 7, either monosomy or nullisomy.
(§5) Immunohistochemistry. Paraffin sections (5 μm, freshly cut) were deparaffinized and rehydrated by standard technique. A microwave antigen retrieval method was then carried out in citrate buffer. The tissue was stained using a Ventana ES Histo-stainer (Ventana Medical Systems, Tucson, Ariz.) using supplied diaminobenzidine and avidin-biotin conjugate immunoperoxidase chemistry.

[3] = tested on: NSCLC; settings: phase II trials; cited from earlier work
[4] = tested on: NSCLC patients; experiment: Objective response (RECIST) of NSCLC patients in the gefitinib expanded access trial, by demographic and molecular subgroup; type: in vivo, human
Method: as §1, §2, §3, §4, §5
Immunostaining frequency of all tumor cells on each slide was estimated on a scale of 0 to 4 without knowledge of clinical patient data.

[5] = tested on: NSCLC; settings: phase III trial; cited from earlier work

C#Cc1cccc(Nc2ncnc3cc(OCCOC)c(OCCOC)cc23)c1 [Erlotinib, erlotinib]
response rate [1]: 12.3%

COc1cc2ncnc(Nc3ccc(F)c(Cl)c3)c2cc1OCCCN1CCOCC1 [gefitinib]
Median Survival ([2]; CEN 7 % ≧4 copies <52%): 6.9 Months | Median Survival ([2]; CEN7 % ≧4 copies ≧52%, pAKT+): 39.4 months | Median Survival ([2]; CEN7 % ≧4 copies, pAKT: Any negative): 5.9 months | Median Survival ([2]; CEN 7/cell <3.6 (non-polysomy)): 6.0 Months | Median Survival ([2]; CEN 7/cell <3.6 and >2.0 (“normal”)): 5.8 Months | Median Survival ([2]; CEN 7/cell >3.6 or <2.0 (aneusomy)): 15.3 Months | Median Survival ([2]; CEN 7/cell ≧3.6 (polysomy)): 16.2 Months | Median Survival ([2]; CEN 7/cell, pAKT: Any negative): 5.9 months | Median Survival ([2]; CEN 7 ≧3.6 (polysomy), pAKT+): 24.5 months | Median Survival ([2]; EGFR % gain <75%): 7.9 Months | Median Survival ([2]; EGFR % gain ≧75%): 9.4 Months | Median Survival ([2]; EGFR % gain ≧75% cells and pAKT+): 24.5 months | Median Survival ([2]; EGFR % gain, pAKT: Any negative): 6.6 months | Median Survival ([2]; EGFR Expression, IHC Not detected): 8.5 Months | Median Survival ([2]; EGFR Expression, IHC Present): 7.1 Months | Median Survival ([2]; EGFR/CEN 7 % gain <34%): 6.0 Months | Median Survival ([2]; EGFR/CEN 7 % gain ≧3.4%): 10.3 Months | Median Survival ([2]; EGFR/CEN7 % gain, PTEN: Any negative): 6.6 months | Median Survival ([2]; PTEN Expression, IHC Not detected): 5.9 Months | Median Survival ([2]; PTEN Expression, IHC Present): 9.3 Months | Median Survival ([2]; pAKT Expression, IHC Not detected): 5.8 Months | Median Survival ([2]; pAKT Expression, IHC Present): 10.5 Months | response rate [3]: 18.4% and 11.8% | Objective Response (partial and complete, RECIST), number of patients (%) ([4]; 250 mg daily gefitinib, Total, 81 patients): 12 (15) % | Objective Response, number of patients (%) ([4]; 250 mg daily, Age <60 years): 8 (13) % | Objective Response, number of patients (%) ([4]; 250 mg daily, Age ≧60 years): 4 (21) % | Objective Response, number of patients (%) ([4]; 250 mg daily, Gender Female): 7 (16) % | Objective Response, number of patients (%) ([4]; 250 mg daily, Gender Male): 5 (14) % | Objective Response, number of patients (%) ([4]; 250 mg daily, Histopathological subtype Bronchoalveolar, adenocarcinoma): 10 (18) % | Objective Response, number of patients (%) ([4]; 250 mg daily, Histopathological subtype Other): 2 (8) % | Objective Response, number of patients (%) ([4]; 250 mg daily, Never smoked): 7 (58) % | Objective Response, number of patients (%) ([4]; 250 mg daily, Performance status 0 to 1): 6 (13) % | Objective Response, number of patients (%) ([4]; 250 mg daily, Performance status 2 to 4): 6 (18) % | Objective Response, number of patients (%) ([4]; 250 mg daily, Prior chemotherapy None): 2 (14) % | Objective Response, number of patients (%) ([4]; 250 mg daily, Prior chemotherapy One): 7 (18) % | Objective Response, number of patients (%) ([4]; 250 mg daily, Prior chemotherapy Two or more): 3 (5) % | Objective Response, number of patients (%) ([4]; 250 mg daily, Smoking status Yes): 5 (7) % | Overall response ([4]; 81 patients, 250 mg daily gefitinib): 15% | Objective Response, number of patients (%) ([4]; CEN 7/cell <3.6): 7 (11) % | Objective Response, number of patients (%) ([4]; CEN 7/cell <3.8): 7 (11) % | Objective Response, number of patients (%) ([4]; CEN 7/cell <3.8 and >2.0 (“normal”)): 7 (13) % | Objective Response, number of patients (%) ([4]; CEN 7/cell <4): 7 (11) % | Objective Response, number of patients (%) ([4]; CEN 7/cell >3.8 or <2.0 (aneusomy)): 5 (19) % | Objective Response, number of patients (%) ([4]; CEN 7/cell ≧3.6): 5 (28) % | Objective Response, number of patients (%) ([4]; CEN 7/cell ≧3.8): 5 (31) % | Objective Response, number of patients (%) ([4]; CEN 7/cell ≧4): 5 (36) % | Objective Response, number of patients (%) ([4]; EGFR % gain <75%): 5 (9) % | Objective Response, number of patients (%) ([4]; EGFR % gain ≧75%): 7 (29) % | Objective Response, number of patients (%) ([4]; EGFR IHC 0): 3 (9) % | Objective Response, number of patients (%) ([4]; EGFR IHC 1+ to 4+): 9 (20) % | Objective Response, number of patients (%) ([4]; EGFR/CEN 7 % gain <34%): 3 (7) % | Objective Response, number of patients (%) ([4]; EGFR/CEN 7 % gain ≧34%): 9 (23) % | Objective Response, number of patients (%) ([4]; EGFR/CEN 7 <1): 1 (5) % | Objective Response, number of patients (%) ([4]; EGFR/CEN 7 ≧1): 11 (19) % | Objective Response, number of patients (%) ([4]; EGFR/cell ≦6 (FISH)): 7 (10) % | Objective Response, number of patients (%) ([4]; EGFR/cell ≧6 (FISH)): 5 (46) % | Objective Response, number of patients (%) ([4]; PTEN IHC Absent, 73 patients analyzed): 3 (7) % | Objective Response, number of patients (%) ([4]; PTEN IHC Present (1+ to 4+), 73 patients analyzed): 8 (30) % | patients with complete response ([4]; of 81 patients): 2 patients | patients with partial response ([4]; of 81 patients): 10 patients | patients with stable disease ([4]; of 81 patients): Thirty-six | Objective Response, number of patients (%) ([4]; pAKT IHC Absent, 73 patients analyzed): 4 (10) % | Objective Response, number of patients (%) ([4]; pAKT IHC Present (1+ to 4+), 73 patients analyzed): 7 (21) % | response rate [5]: 8-13% | survival benefit [5]: no significant survival benefit
